The nature of data set [1]: Solubility to fluorine-based solvent (Vertrel XF), 1.0/0.5/0.1 parts by mass added. Particulars: Vertrel XF [CF3(CHF)2CF2CF3], 25° C., ultrasonic waves 5 minutes, left 1 day, visual observation; 0.5 and 0.1 parts by mass per 100 parts. The procedure: Then, the resultant was left to stand for 1 day and solubility thereof was visually observed.
Then, the resultant was left to stand for 1 day and solubility thereof was visually observed, followed by evaluation based on the following evaluation criteria.
[Evaluation Criteria] • 0.5% by mass or more:
When 0.5 parts by mass of the ionic liquid was added, dissolution was found. • 0.1% by mass or more but less than 0.5% by mass:
When 0.5 parts by mass of the ionic liquid was added, no dissolution was found. However, when 0.1 parts by mass of the ionic liquid was added, dissolution was found. • Less than 0.1% by mass:
When 0.5 parts by mass of the ionic liquid was added, no dissolution was found. Moreover, when 0.1 parts by mass of the ionic liquid was added, no dissolution was found.

The nature of data set [2]: Thermal stability, TG/DTA measurement. As to conditions: air 200 mL/min, 30° C. to 600° C., heating rate 10° C./min.

This note sets out measurements from patent publication US20190051326A1, “Ionic Liquid, Lubricant, and Magnetic Recording Medium” (priority 2016, published 2019).

In the case of `CCCCCCCCCCCCCCCCCCC1CCCCN2CCCN=C12.O=S1(=O)NS(=O)(=O)C(F)(F)C(F)(F)C1(F)F` (centres unmarked) [Comparative Example 4A, hexafluorocyclopropane-1,3-bis(sulfonyl)imide-6-octadecyl-1,8-diazabicyclo[5.4.0]-7-undecenium, reference compound], the Fluorine-based solvent solubility entry in data set [1] was “Less than 0.1% by % by mass”. Besides, in data set [2], the “Weight reduction temperature 5%” value is 346.3 °C, the “Weight reduction temperature 10%” value was 384.1 °C and the “Weight reduction temperature 20%” value worked out at 414.0 °C.
For the molecule `CCCCCCCCCCCCCCCCCC[n+]1ccn(CCCC)c1.O=S1(=O)[N-]S(=O)(=O)C(F)(F)C(F)(F)C1(F)F` [Comparative Example 2A, hexafluorocyclopropane-1,3-bis(sulfonyl)imide-1-butyl-3-n-octadecylimidazolium, reference compound], the Fluorine-based solvent solubility result in data set [1] is “Less than 0.1% by % by mass”. For the same molecule, in data set [2], the “Weight reduction temperature 5%” value was 347.2 °C, the “Weight reduction temperature 10%” value stood at 367.0 °C and the “Weight reduction temperature 20%” value was determined as 387.8 °C.
